The subject of one data set is L1210 leukemia. To be noted: carzelesin 400 μg/kg, adozelesin 100 μg/kg; cited from earlier work.
A further data set deals with melanoma. As to conditions: phase I clinical trial; cited from earlier work.
For data set [1], the system named is mouse L1210 leukemia cells. To be noted: cited from earlier work.
For data set [2] the following is noted: mice, therapeutic doses; cited from earlier work.
Data set [3] has as its system K562 human chronic myeloid leukemia cells. Kind of data set: cells. The class given is cell-based. Here is the method: The cytotoxicity was determined using a MTT tetrazolium dye assay (42). […] The incubation was terminated by centrifugation (5 minutes, 300 g) and the cells were washed once with drug-free medium. Following the appropriate drug treatment, the cells were transferred to 96-well microtitre plates, 10^4 cells per well, 8 wells per sample. Plates were then kept in the dark at 37° C. in a humidified atmosphere containing 5% CO2. […] Following incubation of the plates for 4 days (to allow control cells to increase in number by 10 fold) 20 μL of a 5 mg/mL solution of MTT in phosphate buffered saline was added to each well and the plates further incubated for 5 hours. The plates were then centrifuged for 5 minutes at 300 g and the bulk of the medium pipetted from the cell pellet leaving 10-20 μL per well. 200 μL DMSO was added to each well and the samples agitated to ensure complete mixing. The optical density was the read at a wavelength of 550 nm on a Titertek Multiscan ELISA plate reader, and the dose-response curve was constructed.

In another data set the test system is L1210 leukemia cells. Kind of data set: cells. The class given is cell-based, murine. To be noted: Mus musculus; L1210, 72 hr incubation. The protocol: (§1) The P815 and L1210 cell lines were obtained from American Type Tissue Culture Collection (ATCC). The cell lines were grown in Delbecco's Modified Eagle Medium (DMEM, Atlanta Biologicals) supplemented with 10% fetal bovine serum, Hepes Buffer (2 mM, Mediatech Cellgro, 25-060-Cl), L-Glutamine (2 mM, Mediatech Cellgro), and penicillin/streptomycin (50,000 units penicillin, […] streptomycin, Atlanta Biologicals). Cells were maintained at 37° C. in a 5% humidified CO2 atmosphere. […] This cell suspension (100 μL) was added to 96 well flat-bottom cell culture plates. At this concentration, 80,000 cells were seeded in each well. Drug solutions (dissolved in DMSO and diluted in DMEM) were added to each well (5 μL/well) resulting in final concentrations ranging from […] to 1×10^−12 M. Quadruplicate wells were prepared for each drug concentration. The plates were incubated for 72 hr at 37° C. in a 5% CO2 atmosphere. MTT (3-(4,5-dimethylthiazol-2-yl)-2,5-diphenyl tetrazolium bromide) was dissolved in PBS (5 mg/ml). After the indicated cell incubation period, 10 μL of this stock MTT solution was added to each well and the plates were further incubated for 4 h at 37° C. in a 5% CO2 atmosphere. […] The contents of the well were mixed thoroughly by pipetting the cell suspension up and down and the plates were allowed to sit at room temperature for 15 min in order to allow for full development of the purple color. The plates were read on a Dynatech Plate Reader, utilizing Dynex Revelation 3.2 software, with a test wavelenth of 570 nm and a reference wavelength of […].

In data set [4] the test system is panel of 60 human cancer cell lines. As to conditions: 48 hour exposure.
The subject of a further data set is P815 mastocytoma cells. Kind of data set: cells. The class given is cell-based, murine. As to conditions: Mus musculus; P815, 72 hr incubation. The protocol: as §1
The test system of data set [5] is human tumor cells cultivated in polyvinylidene fluoride (PVDF) hollow fibers. Kind of data set: Hollow fiber assay for preliminary in vivo testing. On the set-up: species or system mice.
Method: For these assays, human tumor cells are cultivated in polyvinylidene fluoride (PVDF) hollow fibers, and a sample of each cell line is implanted into each of two physiologic compartments (intraperitoneal and subcutaneous) in mice. […] Three mice are treated with potential antitumor compounds at each of 2 test doses by the intraperitoneal route using a QD×4 treatment schedule. Vehicle controls consist of 6 mice receiving the compound diluent only. The fiber cultures are collected on the day following the last day of treatment. To assess anticancer effects, viable cell mass is determined for each of the cell lines using a formazan dye (MTT) conversion assay. From this, the %T/C can be calculated using the average optical density of the compound treated samples divided by the average optical density of the vehicle controls. In addition, the net increase in cell mass can be determined for each sample as a sample of fiber cultures are assessed for viable cell mass on the day of implantation into mice. Thus, the cytostatic and cytocidal capacities of the test compound can be assessed.
The data are reported as %T/C for each of the 2 compound doses against each of the cell lines with separate values calculated for the intraperitoneal and subcutaneous samples.
The intraperitoneal and subcutaneous samples are scored separately so that criteria (1) and (2) can be evaluated.
The next data set has as its system plasmid pBR322 DNA. Kind of data set: Taq polymerase stop assay. The class given is biochemical.
Where [6] appears, read: 72 h, continuous exposure (3 days).

With `Cc1c[nH]c2c1[C@@]13C[C@@H]1CN(C(=O)c1cc4cc(NC(=O)c5cc6ccccc6o5)ccc4[nH]1)C3=CC2=O` [adozelesin], in the data set on L1210 leukemia, the ILS was 90±11 % ILS. In addition, the clinical response result with melanoma is “partial response on a melanoma patient”.
As for (+)-CC1065, in data set [1] (L1210), the IC50 was 0.02 nM. Also, in [1] (growth of mouse L1210 leukemia cells in culture), the “IC50 values” was “pM range”. In data set [2], the delayed lethality entry is recorded as “delayed lethality in mice at therapeutic doses”.
As for `COc1cc2cc(C(=O)Nc3cc(N)ccc3CCCl)[nH]c2c(OC)c1OC` [Compound 24, 4-(2-Chloroethyl)-3-(5,6,7-trimethoxyindole-2-carboxamido)aniline], the IC50 in data set [3] (setting [6]) amounted to 1300 ± 300 nM.
Turning to `COc1cc2cc(C(=O)Nc3cc(O)c4ccccc4c3CCCl)[nH]c2c(OC)c1OC` [Compound 26, 4-(2-Chloroethyl)-3-(5,6,7-trimethoxyindole-2-carboxamido)-1-naphthol], the IC50 in data set [3] (1 hour exposure) amounted to 17 nM; in data set [3] (setting [6]), 150 nM; with L1210 leukemia cells, 55 nM. For the same compound, in data set [4], the “cytotoxic activity in the NCI screen” value was “activity in the micromolar range”.
With `COC(=O)c1cc2c([nH]1)C(=O)C=C1N(C(=O)c3cc4cc(OC)c(OC)c(OC)c4[nH]3)CC3CC123` (single isomer, unassigned; (+)) [DUMSA, (+)-duocarmycin SA], the delayed lethality result in [2] is given as “devoid of this toxic side effect”.
`COc1cc2cc(C(=O)Nc3cc(N)c4ccccc4c3CCCl)[nH]c2c(OC)c1OC` [Compound 25, 4-(2-Chloroethyl)-3-(5,6,7-trimethoxyindole-2-carboxamido)-1-naphthylamine]: the IC50 in [3] (1 hour exposure) turned out to be 18 nM; in data set [3] (setting [6]) it was 45 nM; with L1210 leukemia cells, 180 nM; in the data set with P815 mastocytoma cells, 68 nM. Moreover, the cell kill result in [5] (hollow fiber studies) is “cell kill observed”. This compound had an SC score in data set [5] (subcutaneous fibers) of 8. In addition, the “cytotoxic activity in the NCI screen” value in [4] was “activity in the micromolar range”.
For the compound “4-(2-Bromoethyl)-3-[5-(5-benzofuran-2-carboxamido)indole-2-carboxamido]phenol [Compound 2]”, the “efficiency in alkylating DNA compared with chloro-compound 1” value in the data set with plasmid pBR322 DNA was “less efficient in alkylating DNA”.
Regarding `CCN(CC)c1ccc2cc(C(=O)Nc3ccc4[nH]c(C(=O)N5C[C@@H](CCl)c6c5cc(OC(=O)Nc5ccccc5)c5[nH]cc(C)c65)cc4c3)oc2c1` [carzelesin], in the data set with L1210 leukemia, the ILS is 150±8 % ILS.

These data come from patent US20030073731A1, “Compositions and methods of the use thereof achiral analogues of CC-1065 and the duocarmycins” (priority 2000, published 2003).
